Entries after “also recorded” stand apart in the source; their conditions may differ.
Experiments:
[1] = test system: rat articular chondrocytes (rArCs); experiment: WNT/β-catenin agonist or antagonist treatment of rArCs with or without IL-1β; format: cell-based
WNT/β-catenin = settings: literature; cited from earlier work
[2] = test system: rat articular chondrocytes (rArCs); experiment: WNT/β-catenin agonist or antagonist treatment of rArCs with or without TNF-α; format: cell-based
[3] = test system: rat articular chondrocytes (rArCs); experiment: Stimulation of rArCs with IL-1β or TNF-α (total DNA, MMP-13, PGE2); format: cell-based; settings: 10 ng/mL IL-1β or 5 and 10 ng/mL TNF-α, 24 hours, vs control
Description: FIGS. […] (FIG. 6A) Total DNA was measured from the cell monolayer and (FIG. 6B) MMP-13, and (FIG. 6C) PGE2 proteins were measured from the conditioned media. Groups not sharing a letter (D, C, B or A over bar) are statistically significant using an alpha=0.05.
Rat articular chondrocytes (rArCs) were isolated using a previously established protocol (see Scott, supra). Briefly, rArCs were isolated from femoral condyles and tibial plateaus from 100-125 g male Sprague Dawley rats. Cartilage was sterilely sliced from the articular surfaces using a surgical blade and placed in Dulbecco's modification of Eagle's medium with 1 g/L glucose, 50 U/mL penicillin and streptomycin (pen-strep) (DMEM). […]
rArCs were plated at a seeding density of 15,000 cells/cm^2 and fed with DMEM supplemented with 10% FBS and 50 U/mL pen-strep. […] MMP-13 (ANASpec, Fremont, CA) and PGE2 (R&D Systems) were measured in the conditioned media by a microplate reader at ex/em 490 nm/520 nm, and 450 nm absorbance, respectively, in accordance with the manufacturer's directions. […] Cell layers were thawed, and mechanically lysed by ultrasonication (40V, 10s/well) (VCX-120; Vibra-cell, Newtown, CT) and DNA was measured using QuantiFluor dsDNE system kit (Promega, Madson, WI) and quantified on a fluorescence plate reader at ex/em 504 nm/531 nm. […]

[4] = test system: rat articular chondrocytes (rArCs); experiment: miR mimic or inhibitor transfection of rArCs with or without TNF-α stimulation; format: cell-based
Description: FIGS. 7A-7F show assessment of miR-122 and miR-451 transfection or inhibition on TNF-α stimulated rat articular chondrocytes. rArCs were transfected at 60% confluence with miR-122, miR-451, miR-122-inhibitor (122-Inh), miR-451 inhibitor (451-Inh), or an empty vehicle (Lipo) for 24 hours followed by 24 hours with or without 10 ng/mL TNF-α stimulation. (FIG. 7A, 7D) Total DNA was measured from the cell monolayer and (FIG. 7B, 7E) MMP-13 and (FIG. 7C, 7F) PGE2 proteins were measured from the conditioned media. Groups not sharing a letter (A, B or C over bar) are statistically significant using an alpha=0.05.
Rat articular chondrocytes (rArCs) were isolated using a previously established protocol (see Scott, supra). Briefly, rArCs were isolated from femoral condyles and tibial plateaus from 100-125 g male Sprague Dawley rats. Cartilage was sterilely sliced from the articular surfaces using a surgical blade and placed in Dulbecco's modification of Eagle's medium with 1 g/L glucose, 50 U/mL penicillin and streptomycin (pen-strep) (DMEM). After removing DMEM, cartilage was incubated with 0.05% trypsin (20 mins, 37° C.), rinsed with DMEM (50 U/mL pen-strep, 20 mins, 37° C.), and then digested with sterile-filtered 0.03% collagenase type II solution (Worthington Biochemical, Lakewood, NJ) in Hank's balanced salt solution (16 hrs, 37° C.). Digestion was quenched with an equal volume of DMEM containing 10% fetal bovine serum (FBS) and 50 U/mL pen-strep, strained through a 40 μm strainer (Greiner Bio-one, North Carolina), spun down at 500×g for 10 mins and plated at a seeding density of 15,000 cells/cm^2. These cells are at passage 0. All experiments used cells at passage 1.
rArCs were plated at a seeding density of 15,000 cells/cm^2 and fed with DMEM supplemented with 10% FBS and 50 U/mL pen-strep. Media were changed 24 hours after plating and then every 48 hours. After treatments described below, conditioned media were collected, centrifuged at 1,000×g for 10 mins to remove cellular debris, aliquoted, and stored at −80° C. until assayed. Cell monolayers were rinsed twice with 1 mL of 1×PBS, lysed in 500 μL of 0.05% Triton X-100, and frozen for later DNA analysis. MMP-13 (ANASpec, Fremont, CA) and PGE2 (R&D Systems) were measured in the conditioned media by a microplate reader at ex/em 490 nm/520 nm, and 450 nm absorbance, respectively, in accordance with the manufacturer's directions. Data were normalized to the DNA content of the cell monolayer. Cell layers were thawed, and mechanically lysed by ultrasonication (40V, 10s/well) (VCX-120; Vibra-cell, Newtown, CT) and DNA was measured using QuantiFluor dsDNE system kit (Promega, Madson, WI) and quantified on a fluorescence plate reader at ex/em 504 nm/531 nm. […]

articular chondrocytes = experiment: miR-122 / miR-451 transfection of articular chondrocytes in presence and absence of IL-1β; format: cell-based, rat
Description: The following Examples with these microRNAs established their functions in articular chondrocytes in the presence and absence of the inflammatory cytokine IL-1β. Since IL-1β signaling is a major contributor of OA, a well-established model of creating an osteoarthritic phenotype in vitro is to stimulate cell cultures with this cytokine. This study first established that both these microRNAs were elevated in OA in the bilateral ACLT model.
The miR-451 miR (SEQ ID NO:10) was originally chosen as a control miR but it had surprising and very specific functions. […] A series of transfections and inhibition experiments with these microRNAs confirmed that these changes were due to the microRNAs themselves.

[5] = miR transfection of articular chondrocytes
[6] = miR transfection plus IL-1β stimulation

Molecule: Cn1ncnc2c(=O)n(C)c(=O)nc1-2 [PKF, PKF-118-310]
- total DNA [1]: drastically decreased total DNA
- IL-1β and TNF-α induced cartilage degradation (WNT/β-catenin): block IL-1β and TNF-α induced cartilage degradation

Molecule: PKF115-584
- IL-1β and TNF-α induced cartilage degradation (WNT/β-catenin): block IL-1β and TNF-α induced cartilage degradation

Molecule: [Cl-].[Li+] [LiCl, lithium chloride]
- total DNA [2]: decreased total DNA to similar levels; also recorded: marginally decreased this
- total DNA [1]: decreased total DNA

Molecule: IL-1β: inflammatory cytokine (Peprotech) used to stimulate chondrocyte cultures
- total DNA of cell monolayer [3]: no differences in DNA

Molecule: miR-122: mirVana miRNA mimic rno-miR-122-5p; UGGAGUGUGACAAUGGUGUUUG (UGGAGUGUGACAAUGGUGUUUG; listed as RNA, chemistry not given here)
- change of total DNA on TNF-α treatment in transfected cells ([4]; 14.5 nM mimic 24 hours, then 10 ng/mL TNF-α 24 hours): modestly decreased total DNA
- total DNA after mimic transfection ([4]; 14.5 nM mimic, 24 hours, vs Lipo control): increased total DNA
- proliferation (articular chondrocytes; [5]): stimulated proliferation
- total DNA (articular chondrocytes; [5]): increased total DNA
- IL-1β-stimulated MMP-13 (articular chondrocytes; [6]): able to prevent the IL-1β-stimulated increase
- IL-1β-stimulated PGE2 (articular chondrocytes; [6]): able to prevent the IL-1β-stimulated increase
- growth factor VEGF (articular chondrocytes; [6]): prevented IL-1β-stimulated increase
- inflammatory mediators, cytokines, chemokines (IL-1α, IL-2, IL-4, IL-6, GM-CSF, MIP-1A; RANTES for miR-122) (articular chondrocytes; [6]): prevented IL-1β-stimulated increase

Molecule: TNF-α
- total DNA of cell monolayer [3]: no differences in DNA
